In ChEMBL document CHEMBL1135928, “Binding mode analysis of 3-(4-benzoyl-1-methyl-1H-2-pyrrolyl)-N-hydroxy-2-propenamide: a new synthetic histone deacetylase inhibitor inducing histone hyperacetylation, growth inhibition, and terminal cell differentiation” (J Med Chem, 2002):

Legend:
Histone deacetylase 1 [1] = molecular target: T1, Histone deacetylase 1 (Mus musculus, UniProt O09106); experiment: In vitro for anti-HDAC1 (Histone deacetylase 1) activity in mouse A20 cells; type: cell-based
Histone deacetylase 1 [2] = molecular target: T1, Histone deacetylase 1; experiment: Binding affinity towards HDAC1 (Histone deacetylase 1) in mouse A20 cells, expressed as binding constant (pKi); type: cell-based

T1 sequence (O09106 whole entry): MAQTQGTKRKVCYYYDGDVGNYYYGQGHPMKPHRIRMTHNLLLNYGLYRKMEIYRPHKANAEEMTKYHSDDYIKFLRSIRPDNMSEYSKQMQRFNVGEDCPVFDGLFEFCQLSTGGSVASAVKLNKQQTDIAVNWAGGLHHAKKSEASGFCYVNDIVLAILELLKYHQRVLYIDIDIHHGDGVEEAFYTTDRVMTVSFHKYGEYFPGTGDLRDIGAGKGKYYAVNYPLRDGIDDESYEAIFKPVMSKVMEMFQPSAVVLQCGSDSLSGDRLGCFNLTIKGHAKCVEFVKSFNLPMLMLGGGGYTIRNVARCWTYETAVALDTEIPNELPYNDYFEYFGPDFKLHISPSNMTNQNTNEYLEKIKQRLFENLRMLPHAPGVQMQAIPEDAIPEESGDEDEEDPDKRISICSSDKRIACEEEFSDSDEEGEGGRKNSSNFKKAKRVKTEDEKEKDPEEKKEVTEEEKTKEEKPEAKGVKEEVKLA

| IC50 (Histone deacetylase 1 [1]) | Ki (Histone deacetylase 1 [2]) | Structure (SMILES) |
| --- | --- | --- |
| 4.9 µM | 2.95 µM | Cn1cc(C(=O)c2ccccc2)cc1/C=C/C(=O)NO |
| 4.2 µM | 2.51 µM | CN(C)c1ccc(C(=O)c2cc(/C=C/C(=O)NO)n(C)c2)cc1 |
| 4.5 µM | 2.69 µM | Cc1ccc(C(=O)c2cc(/C=C/C(=O)NO)n(C)c2)cc1 |
